Consider 38 molecules from patent US8563580B2, “Flavivirus inhibitors and methods for their use” (Georgetown University, priority 2008, dated 2013).

One assay relates to WNV protease. The assay is described as follows: High Throughput Screen (HTS) protease assay. The class given is biochemical, West Nile virus (EG101 strain). The note with it: 100 nl of 5 mg/ml compound in DMSO per 30.1 μl well; substrate Boc-Gly-Lys-Arg-AMC 50 μM; DMSO controls = 100% activity. The protocol: Procedures for expression and purification of WNV (EG101 strain) were similar to those described elsewhere by Mueller et al., Int. J. Biochem. Cell. Biol., 39: 606-14 (2007). Briefly, E. coli Top10 F′ cells (Invitrogen, Carlsbad, Calif.) were transformed with the protease expression plasmid. Cells were grown at 37° C. until the OD600 was ˜0.5. Cells were then induced with isopropyl-1-thio-β-D-galactopyranoside (American Bioanalytical, Natick, Mass.) (0.5 mM), and incubated for 4 h at 37° C. Cells were harvested by centrifugation (5000×g) for 15 min at 4° C., washed once with a buffer containing 50 mM Tris-HCl, pH 7.5, and 200 mM NaCl, centrifuged at 5000×g for 15 min at 4° C., and stored at -80° C. until used.
Proteases were purified by suspending bacterial pellets in 50 mM Hepes, pH 7.0, 500 mM NaCl, (buffer A) with 0.05 mg/ml lysozyme. Cells were incubated for 30 min on ice after addition of 10% stock solution of Triton X-100 (final concentration of 0.5%). Cells were disrupted by sonication for 2 min and the soluble fraction was collected after centrifugation (15,000×g) for 30 min at 4° C. The soluble fraction was incubated for 1 h at 4° C. with Talon resin (BD Bioscience, San Jose, Calif.) which was pre-equilibrated in buffer A. The affinity resin was centrifuged at (400×g) for 10 min at 4° C., washed three times with buffer A, and packed into a column. Washing of the column was continued with the buffer A containing 10 mM imidazole, followed by elution of the protease with buffer A containing 150 mM imidazole. The protease was concentrated and further purified by Sephadex G-75 gel filtration chromatography. The purified protease fractions were pooled and dialyzed against a buffer containing 50 mM Tris-HCl pH 7.5 and 300 mM NaCl (4×1 L). Aliquots (100 μl) were frozen at −80° C.
The protease assay (100 μl) described by Mueller et al., Int. J. Biochem. Cell. Biol. 39: 606-14 (2007) was adapted for a 384-well plate format (30.1 μl). Microtiter plates were loaded sequentially with 14 μl of the reaction buffer containing 200 mM Tris-HCl, pH 9.5, and 30% glycerol (TG buffer) using an automated Wellmate (Matrix, Hudson, N.H.) and 6 μl of WNV protease (0.05 μM) (as prepared above) in TG buffer containing 15 mM NaCl (3 mM final concentration). Plates were then centrifuged at 1000×g for 3 min at room temperature to mix samples and pool liquids at the bottom of the wells. Inhibitor compounds (100 nl of 5 mg/ml in dimethyl sulfoxide; DMSO) were added to each well in duplicate by a pin-transfer mechanism of a robotic delivery system. The final inhibitor concentrations in the assays varied due to different molecular weights of the compounds from the libraries that were screened. Plates were incubated at room temperature to allow for formation of protease/inhibitor complexes. The fluorogenic substrate, t-butyl-oxycarbonyl(Boc)-Gly-Lys-Arg-7-amino-4-methyl coumarin (AMC) (10 μl in TG buffer; 50 μM final concentration in the reaction mixture), was added using the Wellmate, and the plates were centrifuged for 3 min at 1000×g and incubated at room temperature for 15 min. Fluorescence was measured at excitation and emission wavelengths of 385 nm and 465 nm, respectively, on a Perkin-Elmer (Waltham, Mass.) spectrofluorometer. To validate the assay conditions, aprotinin (bovine pancreatic trypsin inhibitor, BPTI) was used as a positive control. Assay mixtures containing DMSO were used as negative controls. The average of fluorescence values in duplicate wells for a given compound was used to determine the percent activity by taking the values obtained with DMSO controls as 100%. Compounds 1-11, 18-32, and 37-101 above were identified. […] Compounds 12-17 are compounds related to those identified in the HTS screen that also show significant WNV protease inhibition, i.e., >95%.

For assay [1], the system named is Dengue 2 replicon expressing BHK cells. Put plainly: Replicon inhibition assay (Renilla luciferase), Dengue 2 replicon expressing BHK cells. The class given is cell-based, Dengue virus (DENV2). Conditions: for EC50: Dengue virus. The protocol: (§1) Baby Hamster Kidney (BHK) and African green monkey kidney epithelial cells (Vero) were cultured in Dulbecco's Modified Eagle Medium (DMEM) (Cellgro®; Mediatech, Inc., Manassas, Va.) supplemented with 10% fetal bovine serum, MEM nonessential amino acid (Cellgro®) (5 ml/liter), and Penicillin-Streptomycin (2.5 ml/liter). Dengue 2 replicon expressing BHK cells and WNV replicon expressing Vero cells were cultured in DMEM as described above containing additionally Geneticin or G418 (Fisher Scientific®, Pittsburgh, Pa.) to maintain the selective pressure of the replicon expressing cells.
(§2) Dengue 2 replicon expressing BHK cells and WNV replicon expressing Vero cells were plated 100 μl into a black 96 well plate (Greiner Bio-One; Monroe, N.C.) with 10^5 cells/ml concentrations. After 6 hours of incubation, 1 μl of each compound diluted in DMSO to 2.5 mM was added into each well to obtain a 25 μM as the final concentration. Cells were incubated at 37° C. in a humidified CO2 (5%) chamber for 24 hours. The media was then removed and the cells are washed with PBS before adding 20 μl of lysis buffer to each well. A Renilla luciferase assay was performed with the addition of 50 μl substrate (Promega Corporation; Madison, Wis.) with a 2 second delay and a 10 second measurement in a Centro LB 960 plate luminescence plate reader (Berthold Technologies; Oak Ridge, Tenn.). The data was analyzed and plotted with GraphPad Prism 5 (GraphPad Software, Inc.; La Jolla, Calif.).
Renilla luciferase activity was measured as described above 24 hours after the addition of the compounds.

In assay [2] the test system is WNV replicon expressing Vero cells. Put plainly: Replicon inhibition assay (Renilla luciferase), WNV replicon expressing Vero cells. The class given is cell-based, West Nile virus (WNV). The protocol: as §1, §2
Specifically, the cells were prepared as above and the concentration of the compounds were varied (see Table 2). Renilla luciferase activity was measured as described above 24 hours after the addition of the compounds.
A general note: Replicon systems follow genome replication, usually without infectious particles.

Some results are limits rather than exact numbers.

For orientation: EC50 means the concentration needed to bring the measured effect to its halfway point. A higher EC50 goes with lower potency in that assay. Turning to `Oc1c(C(Nc2nc3ccccc3s2)c2ccccc2)ccc2cccnc12` (centres unmarked) [Compound 13], the “% Inhibition (reduction in protease activity)” value in the assay with WNV protease was over 95%. Moreover, in assay [1] (DENV2, BHK), the EC50 is about 7.5 µM. Turning to `Oc1ccccc1C(Nc1nc2ccccc2s1)c1ccc2cccnc2c1O` (centres unmarked) [Compound 16], the “% Inhibition (reduction in protease activity)” value with WNV protease was over 95%. The molecule also had an EC50 in assay [1] (DENV2, BHK) of about 4.5 µM. In the same order, the values of `Oc1c(C(Nc2nccs2)c2cccc(OCc3ccccc3)c2)ccc2cccnc12` (centres unmarked) [Compound 17] are over 95% and about 8.3 µM. Consider `Oc1c(CN2CCOCC2)ccc2cccnc12` [Compound 33], for which, in assay [2] (25 μM final concentration, 24 hours, Vero cells), the “WNV replicon inhibition (FIG. 1)” value is given as “inhibitory”. The EC50 was determined as 7.96 µM in assay [2] (West Nile virus, Vero, 24 h) and 10.6 µM in assay [1] (BHK, 24 h). Also, the “DENV2 BHK replicon inhibition (FIG. 2)” value in assay [1] (25 μM final concentration, 24 hours, BHK cells) is recorded as “inhibitory”. On to `CCN(CC)S(=O)(=O)c1ccc2oc(C(=O)Nc3cccc(OC)c3)c(C)c2c1` [Compound 64], for which the “% Inhibition (reduction in protease activity)” value with WNV protease is on record as 65%.

As for `CC(C)(C)C1CCC(C(=O)OCC(=O)Nc2ccc(C(N)=O)cc2)CC1` (centres unmarked) [Compound 65], the “% Inhibition (reduction in protease activity)” value in the assay with WNV protease is recorded as 63%. On the same count and under the same terms, for `CC(NC(=O)Cc1cccs1)C(c1cccs1)N1CCN(c2ccccc2)CC1` (centres unmarked) [Compound 66] the value was 62%; for `COC(=O)c1cc2oc3ccccc3c2n1CC(=O)NCc1ccco1` [Compound 67], 61%. Still for that read-out and setting: the result for `Cc1ccc(NC(=O)C23C(=O)Oc4ccccc4C2C3(C)C(=O)c2ccccc2)cc1` (centres unmarked) [Compound 68] reads 61%; that for `O=C(CCc1ccccc1)Nc1nnc(SCc2ccc(F)cc2)s1` [Compound 69], 61%. The same measure, in the same setting: for `COc1ccc(Cl)cc1NC(=O)c1cc(-c2ccco2)on1` [Compound 70] the value was 60%; for `O=C(CCC(=O)c1ccc(Cl)cc1)Nc1c(F)cccc1F` [Compound 71], 59%; for `Nc1sc2c(c1C(=O)NCCc1ccccc1)CCC2` [Compound 72], 59%.

As for `Cc1ccc(NC(=O)c2cnn(-c3ccccc3)c2NC(=O)c2ccco2)cc1` [Compound 73], the “% Inhibition (reduction in protease activity)” value in the assay with WNV protease came out at 58%. Same read-out and setting: the result for `O=C(/C=C/c1ccccc1)Nc1c2c(nn1-c1ccccc1)CSC2` [Compound 74] reads 57%; that for `O=C(c1cc(Br)cc2c1OCC2)N1CCOCC1` [Compound 75], 57%; that for `CCC(C(=O)Nc1c2c(nn1-c1ccc(F)cc1)CSC2)c1ccccc1` (centres unmarked) [Compound 76], 57%. Regarding `Cc1ccc(CNC(=O)Cc2ccc(-n3cccc3)cc2)cc1` [Compound 77], in the assay on WNV protease, the “% Inhibition (reduction in protease activity)” value turned out to be 56%.

Take `COc1ccc(NC(=O)C(NC(=O)Cc2cccs2)c2ccccc2)cc1` (centres unmarked) [Compound 78]: the “% Inhibition (reduction in protease activity)” value in the assay with WNV protease worked out at 56%. Still for that read-out and setting: the result for `CC1=Nc2ccccc2N=C(NC(=O)CSc2nnnn2-c2ccccc2)C1c1ccccc1` (centres unmarked) [Compound 79] reads 56%; that for `Cc1ccc(/N=C2\NC(=O)C(CC(=O)Nc3ccc(OC(F)(F)F)cc3)S2)cc1` (centres unmarked) [Compound 81], 55%; that for `O=C(Nc1ccc(Cl)cc1)Oc1ccccc1N1CCSCC1` [Compound 82], 55%. The same measure, in the same setting: for `CCOC(=O)c1c(CC(C)C)csc1NC(=O)Cc1ccccc1` [Compound 83] the value was 54%; for `Cc1nnc(NC(=O)CSc2cn(Cc3ccccc3)c3ccccc23)s1` [Compound 84], 54%. Still for that read-out and setting: for `Cc1ccc(NC(=O)c2cc(-c3ccc(O)cc3)on2)cc1` [Compound 85] the value was 54%. Turning to `CCn1c2ccccc2c2nnc(SCC(=O)Nc3ccc(S(N)(=O)=O)cc3)nc21` [Compound 86], the “% Inhibition (reduction in protease activity)” value in the assay with WNV protease was found to be 54%. Take `CCc1ccc(-c2cc(C(=O)Nc3ccc(S(=O)(=O)NC(C)=O)cc3)c3ccccc3n2)cc1` [Compound 87]: the “% Inhibition (reduction in protease activity)” value in the assay on WNV protease was found to be 54%. On the same count and under the same terms, for `Cc1cc(NC(=O)CSc2ccccn2)no1` [Compound 88] the value was 54%; for `O=C(NCc1csc2ccccc12)c1cc(F)cc2c1OCOC2` [Compound 89], 53%.

Regarding `CC(C)c1ccc(NC(=O)CSC(=O)c2ccccc2)cc1` [Compound 92], the “% Inhibition (reduction in protease activity)” value in the assay on WNV protease stood at 52%.

With `COc1cccc(CNC(=O)c2[nH]c(C)c(C(=O)NC3CCCCC3)c2C)c1` [Compound 93], in the assay on WNV protease, the “% Inhibition (reduction in protease activity)” value amounted to 52%. Still for that read-out and setting: for `O=C(CSc1oc(-c2cccs2)nc1S(=O)(=O)c1ccccc1)NC1CCCCC1` [Compound 95] the value was 52%. On the same count and under the same terms, for `CCCCC1CCC(C(=O)Nc2c3c(nn2-c2ccccc2C)C[S+]([O-])C3)CC1` (centres unmarked) [Compound 96] the value was 51%; for `N#CCC(=O)Nc1ccc(Oc2ccccc2)cc1` [Compound 97], 51%. In the case of `Cc1ccc(-c2noc(CCC(=O)NCC3CCN(Cc4cccc(C)c4)CC3)n2)cc1` [Compound 98], the “% Inhibition (reduction in protease activity)” value with WNV protease turned out to be 51%.

For `O=C(Nc1nc(SCc2ccc(F)cc2)ns1)c1cccs1` [Compound 99], in the assay on WNV protease, the “% Inhibition (reduction in protease activity)” value is 50%. Still for that read-out and setting: the result for `CCc1ccccc1NC(=O)Cn1cccc1C1=NC(c2ccccc2)CO1` (centres unmarked) [Compound 100] reads 50%; that for `Cc1ccc(-n2nc3c(c2NC(=O)CCC2CCCC2)CSC3)cc1` [Compound 101], 50%.
